This is an account of results in patent publication US20260138961A1, “MODULATORS OF MITOCHONDRIAL DNA REPLICATION” (Pretzel Therapeutics, Inc., priority 2022, published 2026).

This assay has as its target T1, POLγA:R309C (Homo sapiens, UniProt P54098, R309C).
T1 sequence (P54098 1-1239 R309C): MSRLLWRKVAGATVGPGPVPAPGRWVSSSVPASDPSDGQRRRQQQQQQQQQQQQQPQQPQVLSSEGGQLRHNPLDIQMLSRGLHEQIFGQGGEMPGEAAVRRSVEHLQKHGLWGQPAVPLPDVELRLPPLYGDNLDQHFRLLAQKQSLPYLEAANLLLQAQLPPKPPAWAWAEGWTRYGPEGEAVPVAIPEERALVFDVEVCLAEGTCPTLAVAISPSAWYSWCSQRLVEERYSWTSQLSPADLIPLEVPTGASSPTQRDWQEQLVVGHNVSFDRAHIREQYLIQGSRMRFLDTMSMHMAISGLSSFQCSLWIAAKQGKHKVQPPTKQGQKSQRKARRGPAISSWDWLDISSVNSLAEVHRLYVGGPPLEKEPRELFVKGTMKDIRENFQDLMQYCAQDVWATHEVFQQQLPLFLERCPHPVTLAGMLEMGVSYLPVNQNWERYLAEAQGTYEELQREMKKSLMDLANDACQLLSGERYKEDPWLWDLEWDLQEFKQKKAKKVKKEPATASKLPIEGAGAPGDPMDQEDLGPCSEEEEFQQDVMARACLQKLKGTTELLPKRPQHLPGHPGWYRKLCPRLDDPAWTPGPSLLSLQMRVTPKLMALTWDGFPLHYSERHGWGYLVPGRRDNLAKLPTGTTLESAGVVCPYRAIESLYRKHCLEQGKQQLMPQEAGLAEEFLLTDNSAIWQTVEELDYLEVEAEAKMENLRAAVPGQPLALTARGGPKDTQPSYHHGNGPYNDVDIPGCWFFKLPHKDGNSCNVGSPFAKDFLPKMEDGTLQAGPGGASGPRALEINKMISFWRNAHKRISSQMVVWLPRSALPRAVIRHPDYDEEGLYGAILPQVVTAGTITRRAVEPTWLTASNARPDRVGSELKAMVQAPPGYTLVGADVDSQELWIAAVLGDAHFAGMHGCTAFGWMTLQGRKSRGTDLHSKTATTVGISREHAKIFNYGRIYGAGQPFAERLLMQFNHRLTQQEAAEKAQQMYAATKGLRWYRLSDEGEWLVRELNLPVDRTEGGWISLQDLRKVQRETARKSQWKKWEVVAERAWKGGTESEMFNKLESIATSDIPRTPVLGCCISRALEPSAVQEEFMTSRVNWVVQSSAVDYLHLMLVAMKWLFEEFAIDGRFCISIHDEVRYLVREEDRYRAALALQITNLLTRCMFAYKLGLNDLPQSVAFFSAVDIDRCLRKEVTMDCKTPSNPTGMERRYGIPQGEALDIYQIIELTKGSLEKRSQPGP
T1 sequence (Q9UHN1 1-485 partner): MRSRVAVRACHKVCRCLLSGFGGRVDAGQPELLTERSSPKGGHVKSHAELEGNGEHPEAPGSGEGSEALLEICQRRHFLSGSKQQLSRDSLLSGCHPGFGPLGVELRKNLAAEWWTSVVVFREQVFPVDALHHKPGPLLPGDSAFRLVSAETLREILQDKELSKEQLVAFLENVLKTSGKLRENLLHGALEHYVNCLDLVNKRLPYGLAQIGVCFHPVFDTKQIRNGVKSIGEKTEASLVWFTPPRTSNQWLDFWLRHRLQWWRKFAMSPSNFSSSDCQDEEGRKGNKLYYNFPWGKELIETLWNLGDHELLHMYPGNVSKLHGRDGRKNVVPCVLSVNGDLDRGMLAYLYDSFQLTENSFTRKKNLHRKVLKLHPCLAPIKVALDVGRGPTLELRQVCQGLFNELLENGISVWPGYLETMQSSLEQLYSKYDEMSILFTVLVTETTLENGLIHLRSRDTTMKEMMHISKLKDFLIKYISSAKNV
Kind of assay: DNA polymerization assay, POLγA:R309C mutant. The class given is biochemical. The conditions noted are these: stimulation of polymerase activity, primed M13mp18 ssDNA, 37° C. 2 hours. As for the experimental part:
DNA Polymerization Assay to Monitor Effects on Human Wildtype POLγ and Four Disease-Causing Mutant Variants of Human POLγ.
The ability of small molecules to stimulate the polymerase activity of POLγ was analyzed in a quantitative fluorescence SYBR Green I assay with fluorescence intensity (FI) readout.
In the presence of dNTPs, wild type human POLγ and mutant derivatives thereof were incubated with single-stranded, circular M13mp18 ssDNA hybridized to a short DNA oligonucleotide that functions as a primer for initiation of DNA synthesis. POLγ and mutant derivatives thereof will extend the primer and use the M13mp18 molecule as a template to synthesize long stretches of double-stranded DNA. SYBR Green I, which is a double-stranded DNA-binding dye, was used to quantify formation of double-stranded DNA in the reaction. When bound to double-stranded DNA, SYBR Green I fluorescence increases by up to 100-fold.
The assay was performed in the 384-well plate format. Upon addition of compounds, changes in double-stranded DNA synthesis activity can be monitored by following effects on fluorescent intensity.
The reactions also contained the accessory POLγB subunit, and the human mitochondrial single-stranded DNA binding protein (mtSSB).
The DNA template mixture used in the assay contained 0.5 nM primed M13 mp18 ssDNA, 400 nM mtSSB, 0.1 mM Tris-HCl (pH 8.0), 0.1 mM dNTP, 10 mM MgCl2, 0.1 mg/mL BSA, 1 mM TCEP solution, and 0.02% Triton X-100. The DNA template mixture for the wild type protein contained either 100 μM dNTP, 1 μM dNTP, or 0.1 μM dNTP, designated in Table 2 as 100 μM, 1 μM, and 0.1 μM, respectfully.
Microplates with compounds (0.1 μL in each well) to be tested in the assay were prepared from 10 mM compound stocks in 100% DMSO, and equal amounts of DMSO without any compound were added to positive and negative control wells.
The protein mixture was dispensed (5 μL into each well) into compound plates and incubated at 37° C. for 15 minutes. After incubation, 5 μL of the DNA template mixture was dispensed into each well. The plates were then incubated at 37° C. for 2 hours.
During incubation, a combined stop buffer and detection reagent solution was prepared. The buffer contained 25 mM EDTA (pH 8.0), 0.02% Triton X-100, and SYBR Green I [Invitrogen] diluted 10,000× (for fluorescent readout). EDTA will stop the enzymatic reaction by chelating magnesium ions.
Broadly, the AC50 is the concentration giving half of the maximal activity seen. A lower AC50 goes with greater potency. In turn, `Cc1cc(S(=O)(=O)Nc2cccc(-c3ncc(CO)s3)c2)c(C)cc1Cl` [Example 89, 4-chloro-N-(3-(5-(hydroxymethyl)thiazol-2-yl)phenyl)-2,5-dimethylbenzenesulfonamide] came in with a concentration at half-maximal activity (AC50) of 4 µM.

Regarding `Cc1cc(S(=O)(=O)Nc2cccc(-c3ncc(C4CC4)s3)c2)c(C)cc1Cl` [Example 76, 4-chloro-N-(3-(5-cyclopropylthiazol-2-yl)phenyl)-2,5-dimethylbenzenesulfonamide], the concentration at half-maximal activity (AC50) stood at 6 µM.

Turning to `Cc1cc(S(=O)(=O)Nc2csc(-c3ccccc3)n2)c(C)cc1Cl` [Example 81, 4-chloro-2,5-dimethyl-N-(2-phenylthiazol-4-yl)benzenesulfonamide], the AC50 is 0.6 µM.

The compound `Cc1cc(S(=O)(=O)Nc2ccc3ccn(C)c3c2)c(C)cc1Cl` [Example 72, 4-chloro-2,5-dimethyl-N-(1-methyl-1H-indol-6-yl)benzenesulfonamide] gave a concentration at half-maximal activity (AC50) of 30 µM.

In turn, `Cc1cc(S(=O)(=O)Nc2cccc(-c3ncc(CN(C)C)s3)c2)c(C)cc1Cl` [Example 87, 4-chloro-N-(3-(5-((dimethylamino)methyl)thiazol-2-yl)phenyl)-2,5-dimethylbenzenesulfonamide] showed an AC50 of 6 µM.

Compound `Cc1csc(-c2ccccc2NS(=O)(=O)c2cc(C)c(Cl)cc2C)n1` [Example 80, 4-chloro-2,5-dimethyl-N-(2-(4-methylthiazol-2-yl)phenyl)benzenesulfonamide] returned an AC50 greater than 100 µM.

On to `Cc1nc2ccc(NS(=O)(=O)c3cc(C)c(Cl)cc3C)cc2s1` [Example 73, 4-chloro-2,5-dimethyl-N-(2-methylbenzo[d]thiazol-6-yl)benzenesulfonamide], for which the activity was half-maximal at 1 µM (AC50).
